# Measurements: US20240150321A1, “PYRAZOLYLSULFONAMIDE COMPOUNDS AND THEIR USE IN THERAPY” (HOTSPOT THERAPEUTICS, INC., priority 2022, published 2024)
# Where two headings read alike, the source gives them in different places.
# Experiments:
# [1] = target: Avi-tagged FL MALT-1 (Homo sapiens (Human), UniProt Q9UDY8); test: MALT-1 Fluorogenic Peptide Cleavage Assay (MALT1 inhibition assay); assay type: biochemical; details: Ac-LRSR-AMC peptide substrate, 30 min pre-incubation, 90 min reaction at room temperature
# Avi-tagged FL MALT-1, sequence (Q9UDY8 whole entry): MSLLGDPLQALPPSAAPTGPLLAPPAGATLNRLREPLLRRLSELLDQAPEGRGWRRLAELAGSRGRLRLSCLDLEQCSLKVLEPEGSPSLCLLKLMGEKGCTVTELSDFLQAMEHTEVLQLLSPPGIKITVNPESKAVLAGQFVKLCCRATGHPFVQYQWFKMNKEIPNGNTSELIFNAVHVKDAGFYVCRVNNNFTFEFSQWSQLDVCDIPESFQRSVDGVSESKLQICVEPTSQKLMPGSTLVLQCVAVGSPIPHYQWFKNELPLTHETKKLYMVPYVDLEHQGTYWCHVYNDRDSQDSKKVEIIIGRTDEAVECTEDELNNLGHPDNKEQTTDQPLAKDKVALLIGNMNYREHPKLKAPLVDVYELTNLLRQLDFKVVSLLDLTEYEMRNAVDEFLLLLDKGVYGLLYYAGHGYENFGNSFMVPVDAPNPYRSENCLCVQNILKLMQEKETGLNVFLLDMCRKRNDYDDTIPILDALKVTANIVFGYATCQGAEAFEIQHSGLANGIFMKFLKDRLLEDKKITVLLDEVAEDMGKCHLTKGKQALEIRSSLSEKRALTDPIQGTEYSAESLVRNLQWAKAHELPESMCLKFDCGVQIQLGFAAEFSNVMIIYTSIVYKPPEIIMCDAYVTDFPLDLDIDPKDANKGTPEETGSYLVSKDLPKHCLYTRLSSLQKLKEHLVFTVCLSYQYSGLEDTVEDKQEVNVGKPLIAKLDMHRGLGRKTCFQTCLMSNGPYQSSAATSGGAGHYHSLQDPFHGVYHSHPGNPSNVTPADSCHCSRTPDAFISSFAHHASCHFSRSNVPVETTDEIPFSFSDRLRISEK
# Procedure, shortened: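 Cleavage of Ac-LRSR-AMC, read as fluorescence at 342/441 nm after 90 min at room temperature, with substrate working stocks of 50 μM (Km) or 280 μM (10×Km). Enzyme, Avi-tagged full-length MALT-1 (40 nM stock), was first pre-incubated 30 min with compound in citrate/HEPES pH 6.89 buffer with TCEP, EDTA, CHAPS and 2% DMSO; IC50 fitted from normalised % inhibition.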
# [2] = system: NF-kB reporter in Jurkat cells; test: NF-kB reporter assay in Jurkat cells stimulated with aCD3/aCD28/PMA; assay type: cell-based; details: read-out: NF-kB Reporter Assay IC50
# Procedure, shortened: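 Luminescence (One-Glo) from the NF-kB reporter yielded IC50 values. Stimulation lasted 4 h at 37° C with aCD3, aCD28 and PMA (final 5, 5 and 0.03 […]), after 1 h compound pre-exposure of 25,000 Jurkat cells per well in serum-free RPMI.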
# [3] = Homo sapiens, Jurkat cells, 1 hr compound pre-incubation, aCD3/aCD28/PMA stimulation 4 hr, One-Glo readout
Compound,IC50 [1],"IC50 [2, 3]","IC50 ([2]; Jurkat cells, 1 hr compound pre-incubation, aCD3/aCD28/PMA stimulation 4 hr, One-Glo readout)","IC50 ([2]; Homo sapiens, Jurkat)"
"COc1ccc2cnn(C)c2c1NS(=O)(=O)c1cnn(-c2cc(C3(OC)CCC3)ccn2)c1 [Compound I-132, N-(6-Methoxy-1-Methyl-1H-Indazol-7-yl)-1-(4-(1-Methoxycyclobutyl)Pyridin-2-yl)-1H-Pyrazole-4-Sulfonamide]",≤ 0.4 µM,,,< 0.4 µM
"COC1(c2ccnc(-n3cc(S(=O)(=O)Nc4cccc5cnn(C)c45)cn3)c2)CC(F)(F)C1 [Compound I-138, 1-(4-(3,3-difluoro-1-methoxycyclobutyl)pyridin-2-yl)-N-(1-methyl-1H-indazol-7-yl)-1H-pyrazole-4-sulfonamide]",> 2.5 µM,< 0.4 µM,,
"Cn1nc(F)c2cccc(NS(=O)(=O)c3cnn(-c4cc(C(C)(F)F)ccn4)c3)c21 [Compound I-139, 1-(4-(1,1-Difluoroethyl)Pyridin-2-yl)-N-(3-FLUORO-1-Methyl-1H-Indazol-7-yl)-1H-Pyrazole-4-Sulfonamide]",> 2.5 µM,< 0.4 µM,,
"CCC(F)(F)c1ccnc(-n2cc(S(=O)(=O)Nc3cccc4cnn(C)c34)cn2)c1 [Compound I-140, 1-(4-(1,1-difluoropropyl)pyridin-2-yl)-N-(1-methyl-1H-indazol-7-yl)-1H-pyrazole-4-sulfonamide]",> 2.5 µM,,,< 0.4 µM
"COc1ccc2cnn(C)c2c1NS(=O)(=O)c1cnn(-c2cc(C3(F)CCC3)ccn2)c1 [Compound I-144, 1-(4-(1-fluorocyclobutyl)pyridin-2-yl)-N-(6-methoxy-1-methyl-1H-indazol-7-yl)-1H-pyrazole-4-sulfonamide]",≤ 0.4 µM,,,< 0.4 µM
"Cn1ncc2cccc(NS(=O)(=O)c3cnn(-c4ccccn4)c3)c21 [Compound I-145, N-(1-methyl-1H-indazol-7-yl)-1-(pyridin-2-yl)-1H-pyrazole-4-sulfonamide]",> 2.5 µM,,,< 0.4 µM
"COc1ccnc(-n2cc(S(=O)(=O)Nc3cccc4cnn(C)c34)cn2)c1 [Compound I-146, 1-(4-methoxypyridin-2-yl)-N-(1-methylindazol-7-yl)pyrazole-4-sulfonamide]",> 2.5 µM,< 0.4 µM,,
O=S(=O)(Nc1cccc2cnn(C(F)F)c12)c1cnn(-c2cc(C(F)(F)F)ccn2)c1 [Compound I-239],> 2.5 µM,> 2.5 µM,,
"Cc1n[nH]c2cccc(NS(=O)(=O)c3cnn(-c4cc(C5(F)COC5)ccn4)c3)c12 [Compound I-240, 1-[4-(3-fluorooxetan-3-yl)pyridin-2-yl]-N-(3-methyl-1H-indazol-4-yl)pyrazole-4-sulfonamide]",> 2.5 µM,< 0.4 µM,,
COc1ncc2cnn(C)c2c1NS(=O)(=O)c1cnn(-c2cc(C(F)(F)F)nn2C)c1 [Compound I-241],> 2.5 µM,> 2.5 µM,,
COc1ccc2cnn(C)c2c1NS(=O)(=O)c1cnn(-c2cc(C(F)(F)F)nn2C)c1 [Compound I-242],> 2.5 µM,1 to 2.5 µM,,
Cc1n[nH]c2cccc(NS(=O)(=O)c3cnn(-c4cc(C5(O)COC5)ccn4)c3)c12 [Compound I-243],> 2.5 µM,,1 to 2.5 µM,

# Further lines, with some results ahead:
IC50 [1],"IC50 [2, 3]","IC50 ([2]; Jurkat cells, 1 hr compound pre-incubation, aCD3/aCD28/PMA stimulation 4 hr, One-Glo readout)",Compound,"IC50 ([2]; Homo sapiens, Jurkat)"
≤ 0.4 µM,< 0.4 µM,,"COc1ncc2cnn(C)c2c1NS(=O)(=O)c1cnn(-c2cc(C(C)(C)C)ccn2)c1 [Compound I-127, 1-(4-(tert-butyl)pyridin-2-yl)-N-(6-methoxy-1-methyl-1H-pyrazolo[4,3-c]pyridin-7-yl)-1H-pyrazole-4-sulfonamide]",
> 2.5 µM,< 0.4 µM,,"Cn1ncc2cccc(NS(=O)(=O)c3cnn(-c4cc(C5(O)CCOC5)ccn4)c3)c21 (centres unmarked) [Compound I-128, 1-(4-(3-hydroxytetrahydrofuran-3-yl)pyridin-2-yl)-N-(1-methyl-1H-indazol-7-yl)-1H-pyrazole-4-sulfonamide]",
> 2.5 µM,0.4 to 1 µM,,"Cn1ncc2cccc(NS(=O)(=O)c3cnn(-c4cc(C5(O)CCOCC5)ccn4)c3)c21 [Compound I-129, 1-(4-(4-hydroxytetrahydro-2H-pyran-4-yl)pyridin-2-yl)-N-(1-methyl-1H-indazol-7-yl)-1H-pyrazole-4-sulfonamide]",
> 2.5 µM,< 0.4 µM,,"Cn1ncc2cccc(NS(=O)(=O)c3cnn(-c4cc(C5(F)CCOCC5)ccn4)c3)c21 [Compound I-130, 1-(4-(4-fluorotetrahydro-2H-pyran-4-yl)pyridin-2-yl)-N-(1-methyl-1H-indazol-7-yl)-1H-pyrazole-4-sulfonamide]",
> 2.5 µM,< 0.4 µM,,"COC1(c2ccnc(-n3cc(S(=O)(=O)Nc4cccc5cnn(C)c45)cn3)c2)CCOCC1 [Compound I-131, 1-(4-(4-methoxytetrahydro-2H-pyran-4-yl)pyridin-2-yl)-N-(1-methyl-1H-indazol-7-yl)-1H-pyrazole-4-sulfonamide]",
≤ 0.4 µM,< 0.4 µM,,"COc1ccc2cnn(C)c2c1NS(=O)(=O)c1cnn(-c2cc(C(F)F)ccn2)c1 [Compound I-133, 1-(4-(Difluoromethyl)Pyridin-2-yl)-N-(6-Methoxy-1-Methyl-1H-Indazol-7-yl)-1H-Pyrazole-4-Sulfonamide]",
0.4 to 1 µM,< 0.4 µM,,"COc1ccc2cnn(C)c2c1NS(=O)(=O)c1cnn(-c2cc(C(C)O)ccn2)c1 (centres unmarked) [Compound I-134, 1-(4-(1-hydroxyethyl)pyridin-2-yl)-N-(6-methoxy-1-methyl-1H-indazol-7-yl)-1H-pyrazole-4-sulfonamide]",
0.4 to 1 µM,< 0.4 µM,,"COc1ccc2cnn(C)c2c1NS(=O)(=O)c1cnn(-c2cc(C(C)(C)O)ccn2)c1 [Compound I-135, 1-(4-(2-hydroxypropan-2-yl)pyridin-2-yl)-N-(6-methoxy-1-methyl-1H-indazol-7-yl)-1H-pyrazole-4-sulfonamide]",
0.4 to 1 µM,0.4 to 1 µM,,"Cn1ncc2ccc(F)c(NS(=O)(=O)c3cnn(-c4cc(C(F)(F)F)ccn4)c3)c21 [Compound I-136, N-(6-fluoro-1-methyl-1H-indazol-7-yl)-1-(4-(trifluoromethyl)pyridin-2-yl)-1H-pyrazole-4-sulfonamide]",
0.4 to 1 µM,< 0.4 µM,,"Cc1c(S(=O)(=O)Nc2cccc3cnn(C)c23)cnn1-c1cc(C(F)(F)F)ccn1 [Compound I-137, 5-methyl-N-(1-methyl-1H-indazol-7-yl)-1-(4-(trifluoromethyl)pyridin-2-yl)-1H-pyrazole-4-sulfonamide]",
≤ 0.4 µM,< 0.4 µM,,"COc1ncc2cnn(C)c2c1NS(=O)(=O)c1cnn(-c2cc(C(C)(F)F)ccn2)c1 [Compound I-141, 1-(4-(1,1-Difluoroethyl)Pyridin-2-yl)-N-(6-Methoxy-1-Methyl-1H-Pyrazolo[4,3-C]Pyridin-7-yl)-1H-Pyrazole-4-Sulfonamide]",
0.4 to 1 µM,< 0.4 µM,,"COc1ccc2cnn(C)c2c1NS(=O)(=O)c1cnn(-c2cc(C3(OC)CC(C)C3)ccn2)c1 (centres unmarked) [Compound I-142, N-(6-methoxy-1-methyl-1H-indazol-7-yl)-1-(4-(1-methoxy-3-methylcyclobutyl)pyridin-2-yl)-1H-pyrazole-4-sulfonamide]",
1 to 2.5 µM,< 0.4 µM,,"COc1ccc2cnn(C)c2c1NS(=O)(=O)c1cnn(-c2cc(C3(O)CC(C)C3)ccn2)c1 (centres unmarked) [Compound I-143, 1-(4-(1-hydroxy-3-methylcyclobutyl)pyridin-2-yl)-N-(6-methoxy-1-methyl-1H-indazol-7-yl)-1H-pyrazole-4-sulfonamide]",
